Results published in ChEMBL document CHEMBL1201862, “PubChem BioAssay data set” (2004).
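Each compound was tested at five concentrations against cells in 96-well plates for 48 hours. GI50 marks 50% less growth.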 Activity calls are given as the source filed them. No stated cut-off is given here; in the data, active = GI50 up to about 1.1 µM and inactive = higher.

Assays:
Test in all cases: NCI tumour cell line growth inhibition, 48 h
A549 = tested on: A549
ACHN = tested on: ACHN
BT-549 = tested on: BT-549
CCRF-CEM = tested on: CCRF-CEM
HCC 2998 = tested on: HCC 2998
HCT-116 = tested on: HCT-116
HL-60 = tested on: HL-60
HOP-92 = tested on: HOP-92
Hs-578T = tested on: Hs-578T
M14 = tested on: M14
MDA-MB-435 = tested on: MDA-MB-435
MOLT-4 = tested on: MOLT-4
Malme-3M = tested on: Malme-3M
OVCAR-8 = tested on: OVCAR-8
PC-3 = tested on: PC-3
RXF 393 = tested on: RXF 393
SF-295 = tested on: SF-295
TK-10 = tested on: TK-10
UACC-257 = tested on: UACC-257
UO-31 = tested on: UO-31

Row | SMILES | GI50 (A549) | GI50 (ACHN) | GI50 (BT-549) | GI50 (CCRF-CEM) | GI50 (HCC 2998) | GI50 (HCT-116) | GI50 (HL-60) | GI50 (HOP-92) | GI50 (Hs-578T) | GI50 (M14) | GI50 (MDA-MB-435) | GI50 (MOLT-4) | GI50 (Malme-3M) | GI50 (OVCAR-8) | GI50 (PC-3) | GI50 (RXF 393) | GI50 (SF-295) | GI50 (TK-10) | GI50 (UACC-257) | GI50 (UO-31)
1 | OC1(c2ccc(Cl)cc2)c2c(c3ccccc3c3ccccc23)C2=NCCN21 (stereo not drawn) | 9.14 µM (inactive) | 14.5 µM (inactive) | 16.5 µM (inactive) | > 100 µM (inactive) | 1.98 µM (inactive) | 10.9 µM (inactive) | > 100 µM (inactive) | 16.6 µM (inactive) | 4.58 µM (inactive) | 11.4 µM (inactive) | 29.7 µM (inactive) | 10.8 µM (inactive) | 16.5 µM (inactive) | 11.9 µM (inactive) | 14.6 µM (inactive) | 11.4 µM (inactive) | 11.5 µM (inactive) | 4.98 µM (inactive) | 20.4 µM (inactive) | 10.7 µM (inactive)
2 | Cn1c2ccccc2n2c3ccccc3c(=O)c(C#N)c12 | 4.94 µM (inactive) | 2.91 µM (inactive) | 43.2 µM (inactive) | 8.38 µM (inactive) | 6.56 µM (inactive) | 4.19 µM (inactive) | 3.41 µM (inactive) | 15.3 µM (inactive) | 13.2 µM (inactive) | > 75.3 µM (inactive) | 71.8 µM (inactive) | 2.96 µM (inactive) | 4.27 µM (inactive) | 3.96 µM (inactive) | 22.8 µM (inactive) | 40.7 µM (inactive) | 12.6 µM (inactive) | > 55 µM (inactive) | 55.6 µM (inactive) | 4.14 µM (inactive)
3 | COc1cc(/C=C/c2cc(=O)cc(/C=C/c3ccc(O)c(OC)c3)o2)ccc1O | 64.1 µM (inactive) | 48.1 µM (inactive) | 99.8 µM (inactive) | 0.324 µM (active) | 13.6 µM (inactive) | > 55.5 µM (inactive) | 15.7 µM (inactive) | 17.9 µM (inactive) | 24.4 µM (inactive) | > 100 µM (inactive) | 35.5 µM (inactive) | – | > 69.5 µM (inactive) | 46.2 µM (inactive) | > 85.9 µM (inactive) | 15.9 µM (inactive) | 32.4 µM (inactive) | > 75.5 µM (inactive) | > 100 µM (inactive) | > 100 µM (inactive)
4 | O=C(c1c(F)c(F)c(F)c(F)c1F)n1c(O)nc2ccccc21 | 16.7 µM (inactive) | 16.1 µM (inactive) | 18.5 µM (inactive) | 4.53 µM (inactive) | 3.56 µM (inactive) | 3.49 µM (inactive) | 2.42 µM (inactive) | 2.88 µM (inactive) | 17.2 µM (inactive) | 9.33 µM (inactive) | 10.1 µM (inactive) | 4.47 µM (inactive) | 14.8 µM (inactive) | 13.2 µM (inactive) | 7.93 µM (inactive) | 8.59 µM (inactive) | 16.4 µM (inactive) | 5.19 µM (inactive) | 5.69 µM (inactive) | 12.3 µM (inactive)
5 | CCOC(=O)c1c(N2CCCC2)ncn(Cc2ccccc2)c1=S | > 100 µM (inactive) | 95.1 µM (inactive) | > 100 µM (inactive) | > 100 µM (inactive) | > 100 µM (inactive) | > 100 µM (inactive) | > 100 µM (inactive) | 19.5 µM (inactive) | > 100 µM (inactive) | > 100 µM (inactive) | > 100 µM (inactive) | 92.3 µM (inactive) | > 100 µM (inactive) | > 100 µM (inactive) | 90.4 µM (inactive) | > 100 µM (inactive) | > 100 µM (inactive) | > 100 µM (inactive) | > 100 µM (inactive) | 55.8 µM (inactive)
6 | CSC1=NN(C(C)=O)C(C(OC(C)=O)C(OC(C)=O)C(OC(C)=O)C(COC(C)=O)OC(C)=O)S1 (stereo not drawn) | > 100 µM (inactive) | > 100 µM (inactive) | > 100 µM (inactive) | > 100 µM (inactive) | > 100 µM (inactive) | > 100 µM (inactive) | > 100 µM (inactive) | > 100 µM (inactive) | > 100 µM (inactive) | > 100 µM (inactive) | > 100 µM (inactive) | > 100 µM (inactive) | > 100 µM (inactive) | > 100 µM (inactive) | > 100 µM (inactive) | > 100 µM (inactive) | > 100 µM (inactive) | > 100 µM (inactive) | > 100 µM (inactive) | 11 µM (inactive)
7 | C[C@@H]1Nc2cc(NC(=O)OCCF)nc(N)c2N=C1c1ccccc1 | < 0.0001 µM (active) | 24.8 µM (inactive) | 84.1 µM (inactive) | < 0.0001 µM (active) | < 0.01 µM (active) | < 0.0001 µM (active) | < 0.0001 µM (active) | > 100 µM (inactive) | < 0.0001 µM (active) | < 0.0001 µM (active) | < 0.0001 µM (active) | < 0.0001 µM (active) | 0.111 µM (active) | < 0.0001 µM (active) | < 0.0001 µM (active) | 29 µM (inactive) | < 0.0001 µM (active) | – | < 0.01 µM (active) | 21.5 µM (inactive)
